In patent US20080221103A1, “New heterocyclic compounds” (ORCHID RESEARCH LABORATORIES LTD., priority 2007, published 2008):

Columns and labels:
[1] = tested on: PDE4; experiment: PDE4 activity; format: biochemical; details: source human U937 cells
Protocol: PDE4 inhibition was measured by following a literature assay procedure (Cortizo J et al., J. Pharmacol., 1993, 108, 562-568). The assay method involves the following conditions.
Pre-Incubation Time/Temperature: 15 min at 25° C.
Incubation Time/Temperature. 20 min at 25° C.
Incubation buffer: 50 mM Tris-HCl, pH 7.5, 5 mM MgCl2 Quantitation method: Quantitation of [^3H]

[2] = target: T1, 5-LOX (Homo sapiens, UniProt P09917); experiment: 5-LOX activity; format: biochemical; details: source human PBML cells, LTB4 EIA
T1 construct: Source: Human PBML cells Substrate: Arachidonic acid; endogenous in cells; host or cells: Human PBML cells (peripheral blood mononuclear leukocytes)
T1 sequence (P09917 1-674): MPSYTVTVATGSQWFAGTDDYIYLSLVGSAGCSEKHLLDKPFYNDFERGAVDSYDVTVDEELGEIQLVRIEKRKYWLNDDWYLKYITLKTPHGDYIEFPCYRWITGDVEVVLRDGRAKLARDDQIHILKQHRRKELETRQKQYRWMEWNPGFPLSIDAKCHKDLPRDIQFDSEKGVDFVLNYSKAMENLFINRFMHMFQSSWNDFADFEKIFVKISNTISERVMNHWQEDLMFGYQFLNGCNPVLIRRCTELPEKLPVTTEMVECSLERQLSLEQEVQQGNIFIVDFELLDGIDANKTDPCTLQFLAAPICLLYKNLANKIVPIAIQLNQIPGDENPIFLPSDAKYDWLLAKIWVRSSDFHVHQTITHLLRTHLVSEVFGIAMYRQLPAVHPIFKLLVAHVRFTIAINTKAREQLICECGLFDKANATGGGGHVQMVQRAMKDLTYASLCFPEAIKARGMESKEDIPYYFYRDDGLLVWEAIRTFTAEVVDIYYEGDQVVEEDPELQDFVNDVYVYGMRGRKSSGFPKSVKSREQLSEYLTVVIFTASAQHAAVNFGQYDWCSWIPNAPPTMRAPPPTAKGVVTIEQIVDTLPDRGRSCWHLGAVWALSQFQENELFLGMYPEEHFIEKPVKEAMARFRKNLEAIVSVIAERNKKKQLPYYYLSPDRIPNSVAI
Protocol: The assay method involves the following conditions. Source: Human PBML cells Substrate: Arachidonic acid
Pre-incubation Time/Temp.: 15 min at 37° C.
Incubation Time/Temp.: 15 min at 37° C.
Incubation buffer: HBSS (Hank's balanced salt solution) Quantitation method: EIA quantitation of LTB4 Significance criteria: >50% of maximum stimulation or inhibition The results are tabulated as shown in the table V.

[3] = tested on: TNF-α; experiment: In vitro measurement of TNF-α production in LPS-stimulated human PBMC (ELISA); format: cell-based; details: LPS 1 μg/ml, 18 h; for inhibition at 1 µM: read-out: TNF-α Inhibition (%) at Conc. (1 μM); for inhibition at 10 µM: read-out: TNF-α Inhibition (%) at Conc. (10 μM)
Protocol: This assay determines the effect of test compounds on the production of TNF-α in human Peripheral Blood Mononuclear Cells (PBMC). Compounds were tested for their ability to inhibit the activity of TNF-α in human PBMC. PBMC were isolated from blood (of healthy volunteers) using BD Vacutainer CPT™ (Cell preparation tube, BD Bio Science) and suspended in RPMI medium (Physiol. Res. 52: 593-598, 2003). The test compounds were pre-incubated with PBMC (0.5 million/incubation well) for 15 min. at 37° C. and then stimulated with Lipopolysaccharide (Escherichia coli: B4; 1 μg/ml) for 18 h at 37° C. in 5% CO2. The levels of TNF-α in the cell culture medium were estimated using enzyme-linked immunosorbent assay performed in a 96 well format as per the procedure of the manufacturer (Cayman Chemical, Ann Arbor, USA).

[4] = tested on: DSS Induced colitis; experiment: IBD-DSS model (DSS induced colitis test); format: in vivo; details: dosed Day 1 to 6, BALB/c mice, DSS 2%
Protocol: DSS Induced colitis test was performed as described by Axelsson et al., 1998. Male BALB/c mice were selected in the age of 7-8 weeks for the study. Colitis in mice was induced by providing DSS (2%) in the drinking water from day 1 to 6. Mice were dosed from Day 1 to 6 with test compound suspended in vehicle containing 0.25% carboxymethylcellulose and 0.5% Tween 80. The control animals received vehicle alone. Body weight and disease activity index was recorded daily during the experiment. After 6 days of treatment, animals were sacrificed; colon weight and colon length was recorded.

[5] = target: T2, Thromboxane synthase (Homo sapiens, UniProt P24557); experiment: Thromboxane synthase activity; format: biochemical; details: source human platelets, TxB2 EIA
T2 construct: Source: Human Platelets; from tissue; host or cells: Human platelets
T2 sequence (P24557 1-533): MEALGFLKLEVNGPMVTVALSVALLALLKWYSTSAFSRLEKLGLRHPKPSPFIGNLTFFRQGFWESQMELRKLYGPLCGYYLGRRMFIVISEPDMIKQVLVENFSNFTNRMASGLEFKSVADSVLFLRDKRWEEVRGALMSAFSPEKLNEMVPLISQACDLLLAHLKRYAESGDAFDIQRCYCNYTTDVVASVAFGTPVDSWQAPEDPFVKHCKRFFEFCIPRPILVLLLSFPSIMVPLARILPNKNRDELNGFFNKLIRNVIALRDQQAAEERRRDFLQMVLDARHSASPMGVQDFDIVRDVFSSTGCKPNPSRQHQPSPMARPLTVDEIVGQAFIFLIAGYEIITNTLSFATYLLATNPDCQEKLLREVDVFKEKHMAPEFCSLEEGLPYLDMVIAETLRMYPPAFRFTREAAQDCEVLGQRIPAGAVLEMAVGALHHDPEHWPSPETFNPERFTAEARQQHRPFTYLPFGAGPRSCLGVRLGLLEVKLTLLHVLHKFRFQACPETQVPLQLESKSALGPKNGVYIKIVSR
Protocol: The assay method involves the following conditions.
Pre-incubation Time/Temp.: 15 min at 25° C.
Incubation Time/Temp.: 3 min at 25° C.
Incubation buffer: 10 mM Tris-HCl, pH 7.4 Quantitation method: EIA quantitation of TxB2 Significance criteria: >50% of maximum stimulation or inhibition The results are tabulated as shown in the table VI.

[6] = tested on: TNF-α; experiment: LPS induced sepsis for measurement of TNF-α inhibition in mice; format: in vivo; details: Mus musculus, 1.5 h; oral dosing; serum TNF-α 90 min after LPS i.p.
Protocol: The LPS induced sepsis model in mice was performed as described by Les sekut et al (J Lab Clin Med, 1994, 124, 813-820). Female Swiss albino mice were selected and the body weights were equivalent within each group. The mice were fasted for 20 h with free access to water. The mice were dosed orally with the test compound suspended in vehicle containing 0.5% Tween 80 in 0.25% Carboxy-methylcellulose sodium salt. The control mice were administered the vehicle alone. After 30 minutes of oral dosing, mice were injected with 500 μg of Lipopolysaccharide (Escherichia coli, LPS: B4 from Siga) in phosphate buffer saline solution into the intraperitoneal cavity of the mice. After 90 min of LPS administration mice were bled via retro-orbital sinus puncture. Blood samples were stored overnight at 4° C. Serum samples were collected by centrifuging the samples at 4000 rpm for 15 minutes at 4° C. Immediately the serum samples were analysed for TNF-α levels using commercially available mouse TNF-α ELISA kit (Amersham Biosciences) and assay was performed by the manufacturer instruction.

[7] = tested on: HCT116 cells; experiment: Anti-cancer screen (MTT), HCT116; format: cell-based; details: Homo sapiens, HCT-116, 48 h, concentrations tested 0.01-100 μM
Protocol: (§1) Experimental drugs are screened for anti-cancer activity in three cell lines for their GI50, TGI and LC50 values (using 5 concentrations for each compound). The cell lines are maintained in DMEM containing 10% fetal bovine serum. 96 well microtiter plates are inoculated with cells in 100 μL for 24 hours at 37° C., 5% CO2, 95% air and 100% relative humidity. 5000 HCT116 cells/well, 5000 NCIH460 cells/well, 10000 U251 cells/well and 5000 MDAMB231 cells/well are plated. A separate plate with these cell lines is also inoculated to determine cell viability before the addition of the compounds (T0).
(§2) Following 24-h incubation, experimental drugs are added to the 96 well plates. […]
(§3) Cells are incubated with compounds for 48 h followed by the addition of 10 μL 3-(4,5-Dimethyl-2-thiazolyl)-2,5-diphenyl-2H-tetrazolium (MTT) solution per well and a subsequent incubation at 37° C., 5% CO2, 95% air and 100% relative humidity, protected from light. […] Plates are agitated to ensure solution of the formazan crystals in DMSO and absorbance read at 570 nm.
(§4) Percent growth is calculated for each compound's concentration relative to the control and zero measurement wells (T0; viability right before compound addition). […]

[8] = tested on: NCIH460, HCT116, U251; experiment: Anti-cancer screen (MTT), mean over three cell lines; format: cell-based; details: mean of NCIH460, HCT116, U251
Protocol: as §1, §2, §3, §4

[9] = tested on: U251 cells; experiment: Anti-cancer screen (MTT), U251; format: cell-based; details: Homo sapiens, U-251, 48 h, concentrations tested 0.01-100 μM
Protocol: as §1, §2, §3, §4

[10] = tested on: NCIH460 cells; experiment: Anti-cancer screen (MTT), NCIH460; format: cell-based; details: Homo sapiens, NCI-H460, 48 h, concentrations tested 0.01-100 μM
Protocol: as §1, §2, §3, §4

Row | SMILES | inhibition at 1 µM [3] | inhibition at 10 µM [3] | further results
1 | CSc1nc(-c2ccccc2)nc(NN2C(=O)C=C(C)C2=O)c1C#N [Example 1, 4-(3-Methyl-2,5-dioxo-2,5-dihydro-1H-pyrrol-1-ylamino)-6-(methylthio)-2-phenylpyrimidine-5-carbonitrile] | 57.3% | 92.7% | PDE4 inhibition at 10 μM (%) [1]: 61%; inhibition at 10 µM [2]: 94%; IBD-DSS Model % Inhibition of DAI at 50 mg/kg [4]: 47%; inhibition at 10 µM [5]: 96%; ED50 [6]: 3.1 mg/kg
2 | COc1ccc(-c2nc(NN3C(=O)C=C(C)C3=O)c(C#N)c(SC)n2)cc1 [Example 2, 4-(Thiomethyl)-2-(4-methoxyphenyl)-6-(3-methyl-2,5-dioxo-2,5-dihydro-1H-pyrrol-1-ylamino)pyrimidine-5-carbonitrile] | 50.9% | 95.4% | –
3 | COc1ccc(-c2nc(NN3C(=O)C=C(C)C3=O)c(C#N)c(SC)n2)cc1S(N)(=O)=O [Example 6, 5-(5-Cyano-4-(3-methyl-2,5-dioxo-2,5-dihydro-1H-pyrrol-1-ylamino)-6-(methylthio)pyrimidin-2-yl)-2-methoxybenzenesulfonamide] | – | 88% | GI50 [7]: 4.9 µM; GI50 [8]: 5.3 µM; GI50 [9]: 0.92 µM; GI50 [10]: 10.1 µM
4 | CSc1nc(-c2cccc(S(N)(=O)=O)c2)nc(NN2C(=O)C=C(C)C2=O)c1C#N [Example 10, 3-(5-Cyano-4-(3-methyl-2,5-dioxo-2,5-dihydro-1H-pyrrol-1-ylamino)-6-(methylthio)pyrimidin-2-yl)benzenesulfonamide] | 20% | 9.7% | –
5 | CSc1nc(-c2cccs2)nc(NN)c1C#N [Example 13, 4-Hydrazinyl-6-(methylthio)-2-(thiophen-2-yl)pyrimidine-5-carbonitrile] | 13% | 71% | –
6 | COc1ccc(-c2nc(SC)c(C#N)c(N3CCN(c4ccccn4)CC3)n2)cc1 [Example 39, 2-(4-Methoxyphenyl)-4-(methylthio)-6-(4-(pyridin-2-yl)piperazin-1-yl)pyrimidine-5-carbonitrile] | 19.2% | 34% | –
